From the NIST ThermoML archive (doi:10.1021/je900648p)
± gives the expanded uncertainty stated by the source.

Tests used:
[1] = 101.33 kPa, Liquid, Hot wire method
[2] = molar heat capacity at constant pressure; settings: 101.33 kPa, Liquid, Small sample (50 mg) DSC

| Structure (SMILES) | thermal conductivity ([1]; 293 K) [W/m/K] | thermal conductivity ([1]; 303 K) [W/m/K] | thermal conductivity ([1]; 313 K) [W/m/K] | thermal conductivity ([1]; 323 K) [W/m/K] | thermal conductivity ([1]; 333 K) [W/m/K] | thermal conductivity ([1]; 343 K) [W/m/K] | thermal conductivity ([1]; 353 K) [W/m/K] | molar heat capacity at constant pressure ([2]; 308.16 K) [J/K/mol] | molar heat capacity at constant pressure ([2]; 313.16 K) [J/K/mol] | molar heat capacity at constant pressure ([2]; 318.16 K) [J/K/mol] | molar heat capacity at constant pressure ([2]; 323.16 K) [J/K/mol] | molar heat capacity at constant pressure ([2]; 328.22 K) [J/K/mol] | molar heat capacity at constant pressure ([2]; 333.22 K) [J/K/mol] | molar heat capacity at constant pressure ([2]; 338.19 K) [J/K/mol] | molar heat capacity at constant pressure ([2]; 343.18 K) [J/K/mol] | molar heat capacity at constant pressure ([2]; 348.25 K) [J/K/mol] | molar heat capacity at constant pressure ([2]; 353.18 K) [J/K/mol] | molar heat capacity at constant pressure ([2]; 358.25 K) [J/K/mol] | molar heat capacity at constant pressure ([2]; 363.18 K) [J/K/mol] | molar heat capacity at constant pressure ([2]; 368.17 K) [J/K/mol] | other results |
| --- | --- | --- | --- | --- | --- | --- | --- | --- | --- | --- | --- | --- | --- | --- | --- | --- | --- | --- | --- | --- | --- |
| CCCCn1cc[n+](C)c1.F[P-](F)(F)(F)(F)F [1-butyl-3-methylimidazolium hexafluorophosphate] | 0.145 ± 0.01 | 0.145 ± 0.01 | 0.145 ± 0.01 | 0.144 ± 0.01 | 0.143 ± 0.01 | 0.143 ± 0.01 | 0.143 ± 0.01 | 410.64 ± 8.2 | 413.48 ± 8.3 | 417.74 ± 8.3 | 422.01 ± 8.4 | 423.43 ± 8.5 | 426.27 ± 8.5 | 429.11 ± 8.6 | 433.37 ± 8.7 | 436.22 ± 8.7 | 439.06 ± 8.8 | 441.9 ± 8.8 | 443.32 ± 8.9 | 444.74 ± 8.9 | molar heat capacity at constant pressure ([2]; 373.21 K): 447.58 ± 8.9 J/K/mol; molar heat capacity at constant pressure ([2]; 378.2 K): 450.43 ± 9 J/K/mol; molar heat capacity at constant pressure ([2]; 383.17 K): 454.69 ± 9.1 J/K/mol; molar heat capacity at constant pressure ([2]; 388.2 K): 457.53 ± 9.2 J/K/mol; molar heat capacity at constant pressure ([2]; 393.17 K): 460.37 ± 9.2 J/K/mol; molar heat capacity at constant pressure ([2]; 398.2 K): 463.21 ± 9.3 J/K/mol; molar heat capacity at constant pressure ([2]; 403.2 K): 468.9 ± 9.4 J/K/mol; molar heat capacity at constant pressure ([2]; 408.16 K): 470.32 ± 9.4 J/K/mol; molar heat capacity at constant pressure ([2]; 413.19 K): 471.74 ± 9.4 J/K/mol; molar heat capacity at constant pressure ([2]; 418.19 K): 473.16 ± 9.5 J/K/mol; molar heat capacity at constant pressure ([2]; 423.22 K): 474.58 ± 9.5 J/K/mol |
| CCCCn1cc[n+](C)c1.F[B-](F)(F)F [1-butyl-3-methylimidazolium tetrafluoroborate] | – | – | – | – | – | – | – | 367.26 ± 7.3 | 367.64 ± 7.3 | 370.39 ± 7.4 | 371.89 ± 7.4 | 373.73 ± 7.5 | 375.92 ± 7.5 | 377.15 ± 7.5 | 380.16 ± 7.6 | 382.69 ± 7.7 | 384.8 ± 7.7 | 386.99 ± 7.7 | 389.18 ± 7.8 | 390 ± 7.8 | molar heat capacity at constant pressure ([2]; 373.21 K): 390.04 ± 7.8 J/K/mol; molar heat capacity at constant pressure ([2]; 378.2 K): 392.18 ± 7.8 J/K/mol; molar heat capacity at constant pressure ([2]; 383.17 K): 393.64 ± 7.9 J/K/mol; molar heat capacity at constant pressure ([2]; 388.2 K): 395.28 ± 7.9 J/K/mol; molar heat capacity at constant pressure ([2]; 393.17 K): 396.49 ± 7.9 J/K/mol; molar heat capacity at constant pressure ([2]; 398.2 K): 397.93 ± 8 J/K/mol; molar heat capacity at constant pressure ([2]; 403.2 K): 400.74 ± 8 J/K/mol; molar heat capacity at constant pressure ([2]; 408.16 K): 403.88 ± 8.1 J/K/mol; molar heat capacity at constant pressure ([2]; 413.19 K): 403.49 ± 8.1 J/K/mol; molar heat capacity at constant pressure ([2]; 418.19 K): 404.98 ± 8.1 J/K/mol; molar heat capacity at constant pressure ([2]; 423.22 K): 406.62 ± 8.1 J/K/mol |
| CCCC[N+]1(C)CCCC1.O=S(=O)([N-]S(=O)(=O)C(F)(F)F)C(F)(F)F | 0.118 ± 0.01 | 0.118 ± 0.01 | 0.118 ± 0.01 | 0.117 ± 0.01 | 0.117 ± 0.01 | – | – | – | – | – | – | – | – | – | – | – | – | – | – | – | – |
| CCCCCCn1cc[n+](C)c1.F[B-](F)(F)F [1-hexyl-3-methylimidazolium tetrafluoroborate] | 0.158 ± 0.01 | 0.157 ± 0.01 | 0.156 ± 0.01 | 0.155 ± 0.01 | 0.153 ± 0.01 | 0.152 ± 0.01 | 0.151 ± 0.01 | – | – | – | – | – | – | – | – | – | – | – | – | – | – |
